# Experiments:
# capsaicin-induced cough [1] = experiment: Capsaicin-induced cough in rats (30 μM capsaicin), plethysmography, Examples 1 and 2; format: in vivo, SD male rats
# Description: (§1) SD male rats (body weight: 250-350 g) were used under non-anesthesic condition.
# (§2) Respiration and cough were measured by plestimography. The body plestimograph used has a plastic cylinder having a diameter of 7.5 cm and a length of 15 cm, and consists of a cylindrical part in which the body of the rat is inserted and a cap part which covers the head. In the upper portion of the cylinder, a vent was formed so as to connect a respiration flow meter. To tightly close the cylinder, a collar made of rubber or celluloid was put on the neck of the rat. In the cap part, an inlet for introducing capsaicin and a ventilating hole were formed. The respiration of the rats was measured by measuring the movement of the thorax due to the respiration in terms of the change in the inner volume of the cylinder by the respiration flow meter. […] This large change is distinguished from the normal respiration and measured by the respiration flow meter. The number of this large change was measured, which is defined as the number of cough.
# (§3) Capsaicin (30 μM) was converted to mist by ultrasonic nebulizer and the mist was sent by an artificial respirator into the cap covering the head of the rat through a silicone tube, thereby inducing cough. Capsaicin was transferred by the artificial respirator for inhalation at a dose of 20 ml/time and at a rate of 30 times/min.
# The rats were made to inhale capsaicin for 5 minutes at 15 minutes before the administration of the test compound. Induction of cough was confirmed during the inhalation of capsaicin. The rats were made to inhale capsaicin for 5 minutes at 15, 60 and 120 minutes after administration of the compound, and the number of induced cough was measured during this period. The antitussive effect was evaluated in terms of the suppression rate, that is, the ratio of the number of cough after administration of the test compound to the number of cough before administration of the compound. The measured suppression rates were compared using Mann Whiteny U-test. If there is a difference at significant level (P<0.05), the difference was evaluated as significant. Capsaicin was dissolved in 10% ethanol and 10% Tween 80 and diluted with saline. The test compound was dissolved in saline. In any case, the test compound was intraperitoneally administered.
# capsaicin-induced cough [2] = experiment: Capsaicin-induced cough in rats (60 μM capsaicin), ED50, Example 3; format: in vivo, SD male rats; conditions: Rattus norvegicus, ip, 0.5 h; i.p.; capsaicin 60 μM, 30 minutes after administration; read-out: ED50 (dose at which the number of cough is suppressed to half)
# Description: as §1, §2
# as §3, with “(60” for “(30”, “10” for “20”, “70” for “30”
# The rats were made to inhale capsaicin for 5 minutes at 270 minutes before the administration of the test compound. Induction of cough was confirmed during the inhalation of capsaicin. The rats were made to inhale capsaicin for 5 minutes at 30 minutes after administration of the test compound, and the number of induced cough during this period was measured. The antitussive effect was evaluated in terms of the suppression rate, that is, the ratio of the number of cough after administration of the test compound to the number of cough before administration of the test compound. Capsaicin was dissolved in saline. The test compounds were dissolved in aqueous 10% DMSO solution. In any case, the test compounds were intraperitoneally administered. The effectiveness of each of the test compounds is shown in terms of ED50 value which means the dose at which the number of cough is suppressed to half.
smiles,measurement,setting,value
"Oc1ccc2c3c1O[C@H]1c4[nH]c5ccccc5c4C[C@@]4(O)[C@@H](C2)N(CC2CC2)CC[C@]314 [Compound 1, 17-cyclopropylmethyl-6,7-didehydro-4,5α-epoxy-3,14β-dihydroxy-6,7,2',3'-indolomorphinan]",dose-dependence of antitussive effect,"capsaicin-induced cough [1]; 0.03 mg/kg to 1 mg/kg, i.p., 15 minutes after administration",dose-dependent antitussive effect
same,antitussive effect,"capsaicin-induced cough [1]; 1 mg/kg, i.p.",a significant antitussive effect was observed
same,peak of the antitussive effect (time after administration),"capsaicin-induced cough [1]; 1 mg/kg, i.p.",15 min
same,antitussive effect at 120 minutes compared with saline group,"capsaicin-induced cough [1]; 1 mg/kg, i.p., 120 minutes after administration, vs saline group",a significant antitussive effect was observed even 120 minutes after the administration
same,antitussive effect compared with morphine (0.3 mg/kg),"capsaicin-induced cough [1]; Compound 1 1 mg/kg vs morphine 0.3 mg/kg, i.p., 15 minutes after administration",substantially identical to that by morphine (0.3 mg/kg)
"Oc1ccc2c3c1O[C@H]1c4[nH]c5c6c(ccc5c4C[C@@]4(O)[C@@H](C2)N(CC2CC2)CC[C@]314)CCCC6 [Compound 2, 17-cyclopropylmethyl-6,7-didehydro-4,5α-epoxy-3,14β-dihydroxy-6',7'-cyclohexeno-6,7,2',3'-indolomorphinan]",ED50,capsaicin-induced cough [2],0.0395 mg/kg
"Oc1ccc2c3c1O[C@H]1c4nc5ccccc5cc4C[C@@]4(O)[C@@H](C2)N(CC2CC2)CC[C@]314 [Compound 4, 17-cyclopropylmethyl-6,7-didehydro-4,5α-epoxy-3,14β-dihydroxy-6,7,2',3'-quinolinomorphinan]",ED50,capsaicin-induced cough [2],0.984 mg/kg
"Oc1ccc2c3c1O[C@H]1c4[nH]c5c(ccc6cnccc65)c4C[C@@]4(O)[C@@H](C2)N(CC2CC2)CC[C@]314 [Compound 5, 17-cyclopropylmethyl-6,7-didehydro-4,5α-epoxy-3,14β-dihydroxy-[6',7'-b]-pyrido-6,7,2',3'-indolomorphinan]",ED50,capsaicin-induced cough [2],0.0797 mg/kg
"COc1ccc2c3c1O[C@H]1c4[nH]c5c(ccc6cnccc65)c4C[C@@]4(O)[C@@H](C2)N(CC2CC2)CC[C@]314 [Compound 6, 17-cyclopropylmethyl-6,7-didehydro-4,5α-epoxy-14β-hydroxy-3-methoxy-[6',7'-b]-pyrido-6,7,2',3'-indolomorphinan]",ED50,capsaicin-induced cough [2],0.0413 mg/kg
"COc1ccc2c3c1O[C@H]1c4[nH]c5ccccc5c4C[C@@]4(O)[C@@H](C2)N(CC2CC2)CC[C@]314 [Compound 7, 17-cyclopropylmethyl-6,7-didehydro-4,5α-epoxy-14β-hydroxy-3-methoxy-6,7,2',3'-indolomorphinan]",ED50,capsaicin-induced cough [2],0.0639 mg/kg
"COc1cc(CNC(=O)CCCC/C=C/C(C)C)ccc1O [capsaicin, reference compound]",number of cough induced by inhalation of capsaicin,"capsaicin-induced cough [1]; capsaicin 30 μM mist, 5 min inhalation",22.5±1.2 times/5 minutes

# — patent US5714483A, “Antitussive” (TORAY Industries, Inc., priority 1992, dated 1998)
